From patent US10150765B2, “P2X7 modulators” (Janssen Pharmaceutica NV, priority 2013, dated 2018)

Molecular target: P2X7 (Homo sapiens (Human), UniProt Q99572)
Test: P2X7 antagonism in human PBMCs (LPS + Bz-ATP induced IL-1β release, ELISA)
Type: cell-based
Details: 10 μM compound, LPS 30 ng/ml + 0.5 mM Bz-ATP
Experimental: Human blood was collected using a blood donor program. PBMCs were isolated from blood using a Ficoll density gradient technique. Briefly, blood was laid on Ficoll solution and centrifuged at RT for 20 minutes at 2000 rpm. The buffy layer (between red blood cells and plasma) was carefully collected by aspiration, washed with PBS and centrifuged again at 1500 rpm for 15 minutes. The resulting cell pellet was washed and plated on 96 well-plates for experiments. […] Lipopolysaccharide (LPS) (30 ng/ml) was added to each well and incubated for 1 hour. Test compounds were then added and incubated for 30 minutes. The P2X7 agonist, 2′(3′)-O-(4-benzoylbenzoyl) adenosine 5′ triphosphate (Bz-ATP) was then added at a final concentration of 0.5 mM (PBMC) or 1 mM (blood). Cells were incubated for an additional 1.5 hours. At that point, supernatant was collected and stored for IL-1β assay using manufacturer's protocol for enzyme-linked immunosorbent assay (ELISA). Data was expressed as percent control, where control is defined as the difference in IL-1β release in LPS+Bz-ATP samples and LPS only samples. Data was plotted as response (% control) versus concentration to generate IC50 values.

Sequence of P2X7 (Q99572 whole entry): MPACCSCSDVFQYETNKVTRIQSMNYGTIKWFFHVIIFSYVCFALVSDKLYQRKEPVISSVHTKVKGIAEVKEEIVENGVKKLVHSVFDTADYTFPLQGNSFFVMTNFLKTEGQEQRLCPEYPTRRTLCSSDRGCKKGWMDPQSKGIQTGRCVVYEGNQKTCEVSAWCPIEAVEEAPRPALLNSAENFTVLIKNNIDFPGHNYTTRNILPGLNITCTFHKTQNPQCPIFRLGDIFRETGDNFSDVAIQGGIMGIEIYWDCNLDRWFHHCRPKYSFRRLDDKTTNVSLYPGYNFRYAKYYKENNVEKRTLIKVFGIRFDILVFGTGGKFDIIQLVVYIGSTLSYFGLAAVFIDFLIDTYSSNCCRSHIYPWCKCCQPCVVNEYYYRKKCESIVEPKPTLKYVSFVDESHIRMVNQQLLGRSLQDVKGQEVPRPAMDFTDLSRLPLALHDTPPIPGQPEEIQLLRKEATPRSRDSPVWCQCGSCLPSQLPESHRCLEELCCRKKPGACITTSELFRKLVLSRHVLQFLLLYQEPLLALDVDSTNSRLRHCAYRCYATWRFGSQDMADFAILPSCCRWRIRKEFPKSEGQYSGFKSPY

SMILES | PBMC 10 μM (% control)
CC1c2nn(COCC[Si](C)(C)C)c(-c3ncc(F)cn3)c2CCN1C(=O)c1cccc(C(F)(F)F)c1Cl (stereo not drawn) [Example 303, (2-chloro-3-(trifluoromethyl)phenyl)(3-(5-fluoropyrimidin-2-yl)-7-methyl-2-((2-(trimethylsilyl)ethoxy)methyl)-4,5-dihydro-2H-pyrazolo[3,4-c]pyridin-6(7H)-yl)methanone] | −1.6
C[C@@H]1c2nnn(-c3ccc(F)cc3)c2C[C@H](C)N1C(=O)c1cccc(C(F)(F)F)c1Cl [Example 287, (2-chloro-3-(trifluoromethyl)phenyl)((4R,6 S)-1-(4-fluorophenyl)-4,6-dimethyl-6,7-dihydro-1H-[1,2,3]triazolo[4,5-c]pyridin-5(4H)-yl)methanone] | −4.1
CC1c2nnn(-c3ncccn3)c2CCN1C(=O)c1ccc(Cl)cc1Cl (stereo not drawn) [Example 283, (2,4-dichlorophenyl)(4-methyl-1-(pyrimidin-2-yl)-6,7-dihydro-1H-[1,2,3]triazolo[4,5-c]pyridin-5(4H)-yl)methanone] | −6.3
Cc1cc(C)nc(-n2nnc3c2CCN(C(=O)c2cccc(C(F)(F)F)c2Cl)C3C)n1 (stereo not drawn) [Example 253, (2-Chloro-3-(trifluoromethyl)phenyl)(1-(4,6-dimethylpyrimidin-2-yl)-4-methyl-6,7-dihydro-1H-[1,2,3]triazolo[4,5-c]pyridin-5(4H)-yl)methanone] | −2.6
Cc1nc(-n2nnc3c2CCN(C(=O)c2cccc(C(F)(F)F)c2Cl)C3C)ncc1F (single isomer, unassigned) [Example 306, (S*)-(2-chloro-3-(trifluoromethyl)phenyl)(1-(5-fluoro-4-methylpyrimidin-2-yl)-4-methyl-6,7-dihydro-1H-[1,2,3]triazolo[4,5-c]pyridin-5(4H)-yl)methanone] | 2.5
C[C@@H]1c2ncn(-c3ccccn3)c2CCN1C(=O)c1cccc(C(F)(F)F)c1F (single isomer, unassigned) [Example 42, (4R*)-5-{[2-Fluoro-3-(trifluoromethyl)phenyl]carbonyl}-4-methyl-1-pyridin-2-yl-4,5,6,7-tetrahydro-1H-imidazo[4,5-c]pyridine] | 5.8
